Assay results taken from patent publication US20250314644A1, “METHODS COMPRISING DETECTION OF ADP-HEPTOSE” (CHILDREN'S HOSPITAL MEDICAL CENTER, priority 2023, published 2025).

Columns and labels:
[1] = test system: Dnmt3a^−/−; Alpk1^−/− HSCs; test: ADP-heptose treatment of low-dose irradiated chimeric mice: donor HSC number, EdU proliferation, secondary transplant; format: in vivo, mouse
Description: To model pre-leukemic clonal hematopoiesis, chimeric mice were generated as aas follows. Briefly, mixture of 1×10^6 whole bone marrow cells (WBM) were obtained from Poly (I:C) treated wild-type (Dnmt3a^+/+; MxCre^+, called Dnmt3a^WT) or mutant mice (Dnmt3a^f/f; MxCre^+, called Dnmt3a^KO) or double mutant mice (Dnmt3a^f/f; MxCre^+; Alpk1^KO, called Dnmt3a^KO; Alpk1^KO) (CD45.2^+), and transplanted into low-dose (2.5 Gy) irradiated recipient mice (CD45.1^+; 6-10 weeks of age). 8 weeks post-transplant, chimeric mice were treated with either water (H2O) or DSS (2.5%) for 1 week, and allowed to recover for 1 more week on water after which flow cytometry was performed on BM. In separate experiment, chimeric mice were pre-treated with broad spectrum antibiotics (ABX) for 4 weeks, and then subjected to DSS for 1 week after which flow cytometry performed on BM. In a separate set of experiment, chimeric mice were treated with either H2O or ADP-heptose (0.5 mg/kg) for 2 weeks, and flow cytometry performed after 2 more weeks on BM. In all the experiments, secondary transplantation was performed by purifying donor HSCs (CD45.2^+Lin^−Sca-1^+c-Kit^+Flk2^−CD150^+CD48^−) and transplanting 100 HSCs with 200,000 helper WBM cells (CD45.1+) into lethally irradiated (8 Gy) recipient mice (CD45.1^+), and donor chimerism in PB examined by flow cytometry.

[2] = test system: NF-κB in THP1 cells; test: NF-κB signaling (immunoblot) and THP1-Blue NF-kB SEAP reporter; format: cell-based, human
Experimental: Protein concentration was evaluated by bicinchoninic acid (BCA) assay (Pierce, Cat #23225). SDS sample buffer was added to the lysates and the proteins were separated by SDS-polyacrylamide gel electrophoresis, transferred to PVDF or nitrocellulose membranes (BIO-RAD, Cat #1620112), and analyzed by immunoblotting. […] Membranes were visualized using ECL Western Blotting Substrate (Pierce, #32106) or SuperSignal West Femto Substrate (Thermo Scientific, #34096), imaged on a BIO-RAD ChemiDoc Touch Imaging system and analyzed with Image lab software 6.0.1 (Biorad) or Image J (22930834).
THP1-Blue NF-kB SEAP reporter cells (Cat no. thp-nkfb, Invivogen) were grown at 20,000 cells per well (200 μl) in a 96-well plate with the indicated agonists and inhibitors for 24 hours. […] The absorbance was read at 630 nm for a final readout. For analysis, media absorbance was subtracted, experimental values were normalized to vehicle control, and triplicates were averaged.

[3] = test system: Dnmt3a^−/−; Alpk1^−/− HSPCs; test: NF-κB activation in vitro (immunoblot); format: cell-based, mouse

Nc1ncnc2c1ncn2[C@@H]1O[C@H](COP(=O)(O)OP(=O)(O)O[C@@H]2O[C@H]([C@H](O)CO)[C@@H](O)[C@H](O)[C@@H]2O)[C@@H](O)[C@H]1O [ADP-heptose, ADP-D-glycero-β-D-manno-heptose]
proliferation of HSCs in vivo (EdU) [1]: completely abrogated
expansion and self-renewal in recipient mice ([1]; ADP-heptose administration): unable to expand nor self-renew
NF-kB activation ([2]; TIFA-deficient THP1 cells): unable to activate NF-kB
canonical NF-κB signaling and transcriptional activation ([2]; human leukemic cells (THP1)): induce canonical NF-κB signaling and transcriptional activation
NF-κB activation upon ADP-heptose stimulation [3]: unable to activate NF-κB
